Test results published in ChEMBL document CHEMBL4011586 (Eur J Med Chem, 2017).
Calls of active or inactive are those of the source. The rule behind the calls is not given here.

What was measured:
[1] = biological target: T1, Amine oxidase [flavin-containing] B (Homo sapiens, UniProt P27338); test: Inhibition of recombinant human MAO-B expressed in baculovirus infected BTI insect cells assessed as reduction in H2O2 production using p-tyramine as substrate pretreated for 30 mins followed by substrate addition after 30 mins by Amplex red reagent based assay
T1 sequence (P27338 whole entry): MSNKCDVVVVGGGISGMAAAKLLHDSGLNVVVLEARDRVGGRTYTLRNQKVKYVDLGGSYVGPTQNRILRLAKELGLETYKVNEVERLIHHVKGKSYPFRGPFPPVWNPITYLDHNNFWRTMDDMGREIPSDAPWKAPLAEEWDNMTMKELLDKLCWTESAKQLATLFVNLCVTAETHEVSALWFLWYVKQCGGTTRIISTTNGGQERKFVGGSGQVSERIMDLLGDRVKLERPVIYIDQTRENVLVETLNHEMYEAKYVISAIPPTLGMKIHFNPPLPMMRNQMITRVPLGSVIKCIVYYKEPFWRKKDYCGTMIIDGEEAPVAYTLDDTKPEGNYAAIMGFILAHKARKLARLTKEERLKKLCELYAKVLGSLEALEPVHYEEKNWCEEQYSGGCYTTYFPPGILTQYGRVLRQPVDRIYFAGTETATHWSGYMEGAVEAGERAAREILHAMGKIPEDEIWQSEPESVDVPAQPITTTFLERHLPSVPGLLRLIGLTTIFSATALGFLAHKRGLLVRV

[2] = biological target: T2, Amine oxidase [flavin-containing] A (Homo sapiens, UniProt P21397); test: Inhibition of recombinant human MAO-A expressed in baculovirus infected BTI insect cells assessed as reduction in H2O2 production using p-tyramine as substrate pretreated for 30 mins followed by substrate addition after 30 mins by Amplex red reagent based assay
T2 sequence (P21397 whole entry): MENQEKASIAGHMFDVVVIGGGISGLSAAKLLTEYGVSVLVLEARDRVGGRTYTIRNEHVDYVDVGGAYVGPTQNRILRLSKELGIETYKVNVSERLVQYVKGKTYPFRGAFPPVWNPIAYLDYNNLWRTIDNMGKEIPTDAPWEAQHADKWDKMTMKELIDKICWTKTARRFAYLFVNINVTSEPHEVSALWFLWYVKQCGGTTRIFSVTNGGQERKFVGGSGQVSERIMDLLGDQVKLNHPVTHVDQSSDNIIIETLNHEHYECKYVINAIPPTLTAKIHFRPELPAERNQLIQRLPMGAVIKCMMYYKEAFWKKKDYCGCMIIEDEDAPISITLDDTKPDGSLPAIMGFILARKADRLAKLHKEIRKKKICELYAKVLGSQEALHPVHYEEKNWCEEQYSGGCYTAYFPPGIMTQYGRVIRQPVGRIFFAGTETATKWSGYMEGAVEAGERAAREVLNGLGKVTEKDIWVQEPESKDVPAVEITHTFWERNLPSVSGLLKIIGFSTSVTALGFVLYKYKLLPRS

Homo sapiens = species: Homo sapiens; test: Selectivity index, ratio of IC50 for recombinant human MAO-A to IC50 for recombinant human MAO-B
PC-12 [3] = test: Neuroprotective activity against H2O2-induced toxicity in rat PC12 cells at 50 to 100 uM pretreated followed by H2O2 challenge measured after 24 hrs; format: functional, cell-based
[4] = Cytotoxicity against human SH-SY5Y cells assessed as cell viability at 50 uM after 24 hrs by WST-1 assay relative to control; format: cell-based; settings: read-out: Activity
[5] = biological target: T1, Amine oxidase [flavin-containing] B; test: Reversible inhibition of recombinant human MAO-B expressed in baculovirus infected BTI insect cells assessed as reduction in H2O2 production using p-tyramine as substrate at 3 times IC50 pretreated up to 60 mins followed by substrate addition after 30 mins by Amplex red reagent based assay; settings: 0.5 h
PC-12 [6] = test: Neuroprotective activity against rotenone-induced toxicity in rat PC12 cells at 50 to 100 uM pretreated followed by rotenone challenge measured after 24 hrs; format: functional, cell-based
[7] = Cytotoxicity against rat PC12 cells assessed as cell viability at 50 uM after 24 hrs by WST-1 assay relative to control; format: cell-based, PC-12; settings: read-out: Activity
[8] = Cytotoxicity against rat PC-12 Adh cells assessed as cell viability at 50 uM after 24 hrs by WST-1 assay relative to control; format: cell-based; settings: read-out: Activity
[9] = biological target: T1, Amine oxidase [flavin-containing] B; test: (§1) Competitive inhibition of recombinant human MAO-B expressed in baculovirus infected BTI insect cells assessed as reduction in H2O2 production at 11 to 44 nM using varying levels of p-tyramine as substrate pretreated up to 60 mins followed by substrate addition measured after 30 mins by Line-weaver burk plot analysis; settings: 0.5 h
[10] = biological target: T1, Amine oxidase [flavin-containing] B; test: as §1, with “4” for “11”, “16” for “44”; settings: 0.5 h

IC50 [1] [µM]	IC50 [2] [µM]	Ratio IC50 (Homo sapiens)	inhibition (INH) [5]	inhibition (INH) [9]	inhibition (INH) [10]	Structure (SMILES)	Activity (PC-12 [3])	viability at 24 h, 50 µM [4] [%]	Activity (PC-12 [6])	viability at 24 h, 50 µM [7] [%]	viability at 24 h, 50 µM [8] [%]
0.554	> 10	> 18				O=C1COC(c2ccc(/C=N/Nc3cccc(Cl)c3)cc2)=NN1					
3.69	> 100	> 27				NC(=O)CN1N=C(c2ccc(NC(=O)c3cccc(Cl)c3)cc2)OCC1=O					
0.287	> 100	> 348				O=C1COC(c2ccc(/N=N/c3cccc(Cl)c3)cc2)=NN1					
0.433	> 100	> 231				O=C1COC(c2ccc(/N=C/c3ccc(Cl)cc3)cc2)=NN1					
> 10	> 100					O=C1COC(c2ccc(NS(=O)(=O)c3cccc(Cl)c3)cc2)=NN1					
2.89	> 100	> 34				O=C1COC(c2ccc(NC(=O)Nc3cccc(Cl)c3)cc2)=NN1					
0.165	> 100	> 606				O=C1COC(c2ccc(/C=C/c3ccccc3)cc2)=NN1					
0.022	> 100	> 4540	Active	Active		O=C1COC(c2ccc(/C=C/c3cccc(F)c3)cc2)=NN1	inactive	> 90	inactive	> 90	> 90
0.012	> 100	> 8330				O=C1COC(c2ccc(/N=N/c3cccc(F)c3)cc2)=NN1					
0.284	> 100	> 357				O=C1COC(c2ccc(NC(=O)c3cccc(Cl)c3)cc2)=NN1					
2.69	> 100	> 37				O=C1COC(c2ccc(NCc3cccc(Cl)c3)cc2)=NN1					

More lines, now with the values behind:

Structure (SMILES)	IC50 [1] [µM]	IC50 [2] [µM]	Ratio IC50 (Homo sapiens)	inhibition (INH) [5]	inhibition (INH) [9]	inhibition (INH) [10]	Activity (PC-12 [3])	viability at 24 h, 50 µM [4] [%]	Activity (PC-12 [6])	viability at 24 h, 50 µM [7] [%]	viability at 24 h, 50 µM [8] [%]
CN1N=C(c2ccc(/N=C/c3cccc(Cl)c3)cc2)OCC1=O	2.03	> 100	> 49								
O=C1COC(c2ccc(/N=C/c3ccccc3)cc2)=NN1	> 10	> 100									
O=C1COC(c2ccc(/C=C/c3ccc(Cl)cc3)cc2)=NN1	0.542	> 100	> 185								
O=C1COC(c2ccc(/C=N/c3cccc(Cl)c3)cc2)=NN1	0.551	> 100	> 182								
Cc1cccc(/C=C/c2ccc(C3=NNC(=O)CO3)cc2)c1	0.338	> 100	> 296								
O=C1COC(c2ccc(/N=N/c3ccc(Cl)cc3)cc2)=NN1	0.392	> 100	> 255								
Cc1cccc(/C=N/c2ccc(C3=NNC(=O)CO3)cc2)c1	1.27	> 100	> 78	Active			inactive	> 90	inactive	> 90	> 90
O=C1COC(c2ccc(/N=C/c3cccc(Cl)c3)cc2)=NN1	0.257	> 100	> 385	Active			inactive	> 90	inactive	> 90	> 90
Cc1cccc(/N=N/c2ccc(C3=NNC(=O)CO3)cc2)c1	0.025	> 100	> 4000								
O=C1COC(c2ccc(/N=N/c3ccccc3)cc2)=NN1	0.004	> 100	> 25000	Active		Active	inactive	> 90	inactive	> 90	> 90
O=C1COC(c2ccc(/C=C/c3cccc(Cl)c3)cc2)=NN1	0.173	> 100	> 578								
N#CCCN1N=C(c2ccc(NC(=O)c3cccc(Cl)c3)cc2)OCC1=O	4.23	> 100	> 24								
O=C1COC(c2ccc(C(=O)Nc3cccc(Cl)c3)cc2)=NN1	0.288	> 100	> 344								
O=C1COC(c2ccc(/N=C/c3cccc(F)c3)cc2)=NN1	1.53	> 100	> 65								
CCN1N=C(c2ccc(/C=C/c3cccc(Cl)c3)cc2)OCC1=O	> 10	> 100									
